Source: PubChem BioAssay (NCI)
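Following 48 hours of exposure in 96-well plates, responses at five concentrations were used to interpolate endpoints linearly. Abbreviation: GI50, concentration required for 50% inhibition of growth. TGI is the concentration that stops growth completely.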 Where a SMILES comes first, the peptide text is derived from it. The star is where a group is joined. Boc = CC(C)(C)OC(=O)*

Key:
Assay in all cases: inhibition of tumour cell growth, NCI panel, 48 h
[1] = system: MCF7 breast
[2] = system: 786-0 renal
[3] = system: SNB-75 CNS
[4] = system: OVCAR-5 ovarian
[5] = system: OVCAR-8 ovarian
[6] = system: NCI/ADR-RES ovarian
[7] = system: COLO 205 colon
[8] = system: A498 renal
[9] = system: RXF 393 renal
[10] = system: SF-539 CNS

COC(=O)C(Cc1c[nH]c2ccccc12)NC(=O)C(Cc1c[nH]c2ccccc12)NC(=O)C(Cc1c[nH]c2ccccc12)NC(=O)C(Cc1c[nH]c2ccccc12)NC(=O)C(Cc1c[nH]c2ccccc12)NC(=O)C(Cc1c[nH]c2ccccc12)NC(=O)OC(C)(C)C (stereo not drawn) (Boc-WWWWWW-OMe; configuration not given here) was tested, and the TGI [1] was over 100 µM, the TGI [2] was over 100 µM and the TGI [3] was over 100 µM. The TGI [4] was over 100 µM and the TGI [5] was over 100 µM.

Work on Cc1ccsc1/C=N/Nc1nc2ccccc2s1 yielded a TGI [1] of 36 µM, a TGI [6] of 77.4 µM and a TGI [7] of over 100 µM. The TGI [2] was 24.7 µM, the TGI [8] was 19.2 µM and the TGI [3] was 35.6 µM. For the same molecule, the TGI [4] was over 100 µM, the TGI [5] was over 100 µM and the TGI [9] was 29 µM.

Molecule O=C(c1ccco1)N1CCCN(C(=O)c2ccco2)C1=S has a TGI [1] of over 100 µM, a TGI [6] of over 100 µM and a TGI [7] of over 100 µM. The TGI [2] was over 100 µM, the TGI [8] was over 100 µM and the TGI [10] was over 100 µM. For the same molecule, the TGI [4] was over 100 µM, the TGI [5] was over 100 µM and the TGI [9] was over 100 µM.

In the case of O=C(/C=C/c1ccc(O)c(O)c1)OCCCc1ccccc1, the TGI [1] is reported as 26.8 µM, the TGI [6] is reported as 28.6 µM and the TGI [7] is reported as 27.1 µM. The TGI [2] was 18.1 µM, the TGI [8] was 30.4 µM and the TGI [10] was 5.81 µM. It also gave a TGI [4] of 37.3 µM and a TGI [9] of 25.5 µM.

Nc1nc(SCc2ccc([N+](=O)[O-])cc2)nc2c1ncn2C1OC(COP(=O)(O)O)C(O)C1O (stereo not drawn) gave a TGI [7] of over 100 µM, a TGI [8] of over 100 µM and a TGI [10] of over 100 µM. It also gave a TGI [3] of over 100 µM, a TGI [4] of over 100 µM and a TGI [5] of over 100 µM. It also gave a TGI [9] of over 100 µM.

For O=C(O)c1cc2ccccc2c(N=Nc2ccc(S(=O)(=O)Nc3nccs3)cc2)c1O, the TGI [1] was over 100 µM, the TGI [6] was over 100 µM and the TGI [7] was over 100 µM. It also gave a TGI [2] of over 100 µM, a TGI [10] of over 100 µM and a TGI [3] of over 100 µM. It also gave a TGI [4] of over 100 µM, a TGI [5] of over 100 µM and a TGI [9] of over 100 µM.

Work on COc1cc2c(cc1OC)C(C(CO)CO)N(CC(O)CCl)CC2 (stereo not drawn) yielded a TGI [7] of over 100 µM, a TGI [2] of over 100 µM and a TGI [8] of over 100 µM. The TGI [10] was over 100 µM, the TGI [3] was over 100 µM and the TGI [4] was over 100 µM. For the same molecule, the TGI [5] was over 100 µM.

With COC(=O)/C(=C\Nc1cccc(C)n1)S(=O)(=O)c1ccc(C)cc1 the TGI [1] was over 100 µM, the TGI [6] was over 100 µM and the TGI [7] was 49.9 µM. It also gave a TGI [2] of over 100 µM, a TGI [10] of over 100 µM and a TGI [3] of over 100 µM. The TGI [4] was over 100 µM, the TGI [5] was over 100 µM and the TGI [9] was over 100 µM.

In the case of Cc1ccc(S(=O)(=O)N/N=C(\c2nc3ccc(Cl)cc3[nH]c2=O)C(O)c2cccc([N+](=O)[O-])c2)cc1 (stereo not drawn), the TGI [7] is reported as over 100 µM, the TGI [2] is reported as over 100 µM and the TGI [8] is reported as over 100 µM. For the same molecule, the TGI [10] was over 100 µM, the TGI [3] was over 100 µM and the TGI [4] was over 100 µM. It also gave a TGI [5] of over 100 µM and a TGI [9] of over 100 µM.

Molecule CCOC(=O)c1cc(-c2cc(OC)c(OC)c([N+](=O)[O-])c2)c([N+](=O)[O-])n1C has a TGI [6] of over 10 µM, a TGI [2] of over 10 µM and a TGI [10] of over 10 µM. It also gave a TGI [3] of over 10 µM, a TGI [4] of over 10 µM and a TGI [5] of over 10 µM. For the same molecule, the TGI [9] was over 10 µM.

CCC(CON(C)c1ccccc1)(SC)SC showed a TGI [1] of over 100 µM, a TGI [6] of over 100 µM and a TGI [7] of over 100 µM. It also gave a TGI [2] of over 100 µM, a TGI [10] of over 100 µM and a TGI [3] of over 100 µM. It also gave a TGI [4] of over 100 µM and a TGI [5] of over 100 µM.

Work on COc1cc(C2c3cc4c(cc3[C@@H](Nc3ccccc3)C3COC[C@H]23)OCO4)cc(OC)c1O (stereo partly drawn) yielded a TGI [1] of over 100 µM, a TGI [6] of over 100 µM and a TGI [7] of 70.7 µM. For the same molecule, the TGI [2] was 2.3 µM, the TGI [10] was 4.35 µM and the TGI [3] was 11.9 µM. It also gave a TGI [4] of 9.83 µM and a TGI [5] of over 100 µM.

For O=c1[nH]c(=O)n(C2OC(COP(=O)(O)OP(=O)(O)OC3OC(CO)C(O)C(O)C3O)C(O)C2O)cc1F (stereo not drawn), the TGI [7] was 7.14 µM, the TGI [2] was 2.68 µM and the TGI [8] was 7.43 µM. The TGI [10] was 1.49 µM, the TGI [3] was over 100 µM and the TGI [4] was 5.33 µM. For the same molecule, the TGI [5] was over 100 µM and the TGI [9] was 0.529 µM.

CCCCc1ccc(Nc2nc3c(ncn3C3CC(O)C(CN=[N+]=[N-])O3)c(=O)[nH]2)cc1 (stereo not drawn) gave a TGI [1] of over 100 µM, a TGI [6] of over 100 µM and a TGI [7] of over 100 µM. For the same molecule, the TGI [2] was over 100 µM, the TGI [8] was over 100 µM and the TGI [3] was over 100 µM. It also gave a TGI [4] of over 100 µM, a TGI [5] of over 100 µM and a TGI [9] of over 100 µM.

In the case of CC(O)c1cc2c(s1)C(=O)c1sccc1C2=O (stereo not drawn), the TGI [1] is reported as 1.89 µM, the TGI [6] is reported as 0.59 µM and the TGI [7] is reported as 1.09 µM. The TGI [2] was 0.538 µM, the TGI [8] was 0.429 µM and the TGI [3] was 0.218 µM. The TGI [4] was 0.368 µM, the TGI [5] was 0.616 µM and the TGI [9] was 0.351 µM.

With O=C1c2ccc(O)cc2C(=O)c2ccc(O)cc21 the TGI [7] was over 100 µM, the TGI [2] was over 100 µM and the TGI [8] was over 100 µM. It also gave a TGI [10] of over 100 µM, a TGI [3] of 81.5 µM and a TGI [4] of over 100 µM. For the same molecule, the TGI [5] was over 100 µM and the TGI [9] was 91.8 µM.

COC(=O)C1C/C(=C/N(C)C)C(=S)N1 (stereo not drawn) gave a TGI [1] of over 100 µM, a TGI [6] of over 100 µM and a TGI [7] of over 100 µM. The TGI [2] was over 100 µM, the TGI [8] was over 100 µM and the TGI [3] was over 100 µM. For the same molecule, the TGI [4] was over 100 µM, the TGI [5] was over 100 µM and the TGI [9] was over 100 µM.

COC(=O)C1=C(C(=O)OC)C(C(=O)c2ccc(Br)cc2)N2N=C(c3ccc(Cl)cc3)C=CC12 (stereo not drawn) gave a TGI [1] of over 100 µM, a TGI [6] of over 100 µM and a TGI [7] of over 100 µM. It also gave a TGI [2] of over 100 µM, a TGI [8] of over 100 µM and a TGI [3] of over 100 µM. It also gave a TGI [4] of over 100 µM and a TGI [5] of over 100 µM.

Work on COc1cc2c(c(OC)c1OC)-c1ccc(SC)c(=O)cc1[C@@H](NCc1ccc(C#N)cc1)CC2 yielded a TGI [7] of 0.0128 µM, a TGI [2] of 48.9 µM and a TGI [10] of 0.00582 µM. The TGI [3] was over 100 µM, the GI50 [4] was 3.15 µM and the TGI [4] was over 100 µM. The TGI [9] was 0.00508 µM.

With Cc1nc(C)c(C(=O)NNC(N)=S)cc1C(=O)NNC(N)=S the TGI [1] was over 100 µM, the TGI [6] was over 100 µM and the TGI [7] was over 100 µM. It also gave a TGI [2] of over 100 µM, a TGI [10] of over 100 µM and a TGI [4] of over 100 µM. It also gave a TGI [5] of over 100 µM and a TGI [9] of over 100 µM.

In the case of C[C@]12CCC(=O)C=C1CC[C@@H]1[C@@H]2[C@@H](O)C[C@@]2(C)[C@H]1CC[C@]2(O)C(=O)COC(=O)COCC(=O)O, the TGI [7] is reported as over 100 µM, the TGI [2] is reported as over 100 µM and the TGI [8] is reported as over 100 µM. The TGI [10] was over 100 µM, the TGI [3] was over 100 µM and the TGI [4] was over 100 µM. The TGI [5] was over 100 µM.

In the case of O=C1Nc2ccccc2C12CCNC2Cc1ccccc1 (stereo not drawn), the TGI [7] is reported as over 100 µM, the TGI [2] is reported as over 100 µM and the TGI [8] is reported as over 100 µM. It also gave a TGI [10] of over 100 µM, a TGI [3] of over 100 µM and a TGI [4] of over 100 µM. It also gave a TGI [5] of over 100 µM.

With CC(C)OP(=O)(OC(C)C)/C(I)=N/Nc1ccc([N+](=O)[O-])cc1 the TGI [7] was over 100 µM, the TGI [8] was over 100 µM and the TGI [10] was over 100 µM. It also gave a TGI [3] of over 100 µM, a TGI [4] of over 100 µM and a TGI [5] of over 100 µM.

In the case of CN(C)c1ccc(C(=C(c2ccc(N(C)C)cc2)c2ccc(N(C)C)cc2)c2ccc(N(C)C)cc2)cc1, the TGI [7] is reported as over 100 µM, the TGI [2] is reported as 23.7 µM and the TGI [8] is reported as 36.8 µM. For the same molecule, the TGI [10] was 28 µM, the TGI [3] was 27.8 µM and the TGI [4] was over 100 µM. It also gave a TGI [5] of 44.7 µM and a TGI [9] of 25.2 µM.
